Experimental data taken from patent publication US12576155B2, “Senolytic and antiinflammatory prodrugs and methods of use thereof” (priority 2019, dated 2026).

Key:
Format in all cases: cell-based
[1] = tested on: senescent human fibroblasts; experiment: Other reported senolytic compounds in cultured senescent human fibroblasts; conditions: hydroperoxide-, replication-, irradiation- and etoposide-induced senescent cells
Excerpt: (§1) For replication-induced senescence, cells were passaged until they lost the ability to proliferate and became senescent. NBFs were used as senescent cells after approximately 8-9 passages or 12 population doublings. HEFs were used after approximately 35 passages or 50 population doublings. HUVECs were senescent after approximately 18 passages or 24 population doublings.
(§2) For ionizing radiation-induced senescence, MEFs and HEFs were exposed to 10 Gy of ionizing irradiation in an RS 2000 X-ray Biological Irradiator (Rad Source Technologies, Inc.) at a dose rate of 1.205 Gy/min. The day after irradiation, MEFs or HEFs were passaged at a 1:3 dilution and cultured for another three days. Then these cells were plated to carry out further experiments.
For etoposide-induced senescence, MEFs were treated with 2 μM etoposide for 20 hours, and HEFs were treated with 10 μM etoposide for 12-18 hours. […]
(§3) To test the viability of senescent and non-senescent cells treated with SSK1, cells were stained with a mixture of Hoechst 33342 and propidium iodide (PI) (CA1120, Solarbio) to distinguish living and dead cells. […] The plate was incubated at 4° C. for 30 min and observed on a fluorescence microscope or automatic cell imaging system. Viable cells were quantified using a MD Image Xpress Micro XL (Molecular Devices).

senescent cells = experiment: Cell viability, SSK1 combined with p38 inhibitors; conditions: SSK1 0.5 μM plus inhibitor
Experimental: To test the viability of senescent and non-senescent cells treated with SSK1, cells were stained with a mixture of Hoechst 33342 and propidium iodide (PI) (CA1120, Solarbio) to distinguish living and dead cells. After treatment with the small molecules, the cell culture medium was removed, and the cells were washed once with PBS. Then, the cells were stained according to the manufacturer's protocol, where the final concentrations of Hoechst 33342 and PI were 5 μg/ml and 2 μg/ml in PBS buffer. The plate was incubated at 4° C. for 30 min and observed on a fluorescence microscope or automatic cell imaging system. Viable cells were quantified using a MD Image Xpress Micro XL (Molecular Devices).

[2] = tested on: β-galactosidase positive senescent human embryonic fibroblasts (HEFs); experiment: CCK-8 cell viability, SSK2 in etoposide-induced senescent HEFs; conditions: increasing doses, 72 h
Experimental: (§4) For etoposide-induced senescence, MEFs were treated with 2 μM etoposide for 20 hours, and HEFs were treated with 10 μM etoposide for 12-18 hours. Three days after treatment, cells were sub-cultured at a 1:3 ratio for 72 hours in a fresh medium before further analysis.
Cultured cells were washed once with PBS and fixed in β-galactosidase staining fix solution for 15 min at room temperature. Cells were then washed three times with PBS and incubated with β-galactosidase staining solution (Beyotime Biotechnology) for 16-20 hours at 37° C. For 12-well plates, 1 ml of β-galactosidase staining solution was added to each well. The plate was sealed with Parafilm to prevent evaporation of the staining medium. After the overnight incubation, cells were washed with PBS and observed under a bright field microscope. For β-galactosidase staining of frozen sections, the frozen sections were dried at 37° C. for 20-30 min and then fixed in β-galactosidase staining fix solution for 15 min at room temperature. The frozen sections were washed three times with PBS and incubated with β-galactosidase staining solution overnight at 37° C. […]
Cell Counting Kit-8 (CCK-8) analysis was also used to assess cell viability. […] The absorbance was measured at 450 nm wavelength.

[3] = tested on: primary human chondrocytes isolated from Osteoarthritis patient; experiment: Viability / apoptosis of primary human OA chondrocytes (CCK-8, Annexin V flow cytometry)
Experimental: Fibroblasts were digested into single cell suspensions by incubation with 0.25% trypsin-EDTA (Invitrogen) at 37° C. for 3-5 min or with accutase at 37° C. for 10 min. Cells were then stained with FITC annexin V and propidium iodide (PI) according to the manufacturer's protocol (FITC Annexin V Apoptosis Detection Kit I, BD Pharmingen™). For chondrocytes Annexin V/7-AAD analysis, the trypsinized live chondrocytes and floating cells were collected, centrifuged and washed with PBS. Cells were stained with the Annexin V Apoptosis Detection Kit (Biolegend, 640934) according to the manufacturer's instruction. Before the flow cytometric analysis, the precision count beads (Biolegend, 424902) were added to count the absolute live cell numbers. Flow cytometry was performed within one hour on an Aria III (BD Biosciences) or FACSVerse (BD Biosciences). Data were analyzed using FlowJo software (FlowJo LLC).
Cell Counting Kit-8 (CCK-8) analysis was also used to assess cell viability. Senescent and non-senescent cells or chondrocytes were inoculated into 96-well plates and cultured overnight. Then cells were treated with vehicle (0.05% DMSO) or different concentrations of SSK2. After 48 h or 72 h, CCK-8 solution (C0041, Beyotime) was added to each well as 1:10 ratio and inoculated for another 2 h. The absorbance was measured at 450 nm wavelength.

[4] = tested on: primary mouse fibroblasts and their replication-induced senescent counterparts; experiment: Cell viability testing, senescent vs non-senescent primary mouse fibroblasts
Experimental: Mouse embryonic fibroblasts (MEFs) were isolated from E13.5 embryos as described previously (Zhao et al., Cell Stem Cell 23, 31-45 e37([…])). Newborn mouse skin fibroblasts (NBFs) were isolated from the skin of day 1-3 newborn mice. Adult mouse lung fibroblasts were isolated from 2-month-old and 23-month-old mice. Briefly, mouse embryonic tissues, skin and lung were obtained from described donor mice. Then, these tissues were minced with forceps and incubated in 2 mg/ml collagenase IV (Gibco) for 2-4 hours at 37° C. After enzyme treatment, cells were collected by centrifugation and resuspended in high-glucose DMEM (Gibco) supplemented with 10% fetal bovine serum (FBS) and 1% penicillin-streptomycin (Gibco). The three types of mouse primary cells were all cultured in a humidified incubator at 37° C. and 5% CO2.
To avoid replication-induced senescent cells, low-passage proliferative NBFs (<3 passages), MEFs (<3 passages), mouse lung fibroblasts (<3 passages), HEFs (<10 passages), and HUVECs (<6 passages) were used as normal controls. To induce cell quiescence, MEFs were cultured in DMEM without FBS for 2 days.
as §1
as §3, with “cells. After treatment with the small molecules, the cell culture medium was removed, and the cells were washed once with PBS.” for “cells.”

[5] = tested on: human senescent fibroblasts induced by different stimuli; experiment: Cell viability, senescent and non-senescent human embryonic fibroblasts (HEFs); conditions: human senescent cells; panel of FDA-approved drugs
Experimental: Human embryonic skin fibroblasts (HEFs) were obtained as previously described. Briefly, human embryonic skin tissues, obtained from aborted tissue with informed patient consent, were minced with forceps and incubated in 1 mg/ml collagenase IV for 1-2 hours at 37° C. After enzyme treatment, cells were collected by centrifugation and resuspended in HEF medium (Dulbecco's modified Eagle's medium (DMEM, Gibco) containing 10% fetal bovine serum (FBS, Ausbian), 1% GlutaMAX (Gibco), 1% Non-Essential Amino Acids (NEAA, Gibco) and 1% penicillin/streptomycin (Gibco). Cells were plated on 10 cm tissue culture dishes and grown in 10% FBS DMEM.
as §1, §2, §4, §3

SMILES: CC1(C)CCC(c2ccc(Cl)cc2)=C(CN2CCN(c3ccc(C(=O)NS(=O)(=O)c4ccc(N[C@H](CCN5CCOCC5)CSc5ccccc5)c(S(=O)(=O)C(F)(F)F)c4)cc3)CC2)C1 [ABT263]
- Selective killing of senescent human fibroblasts compared with proliferative cells [1]: selectively killed hydroperoxide-induced senescent human fibroblasts but not replication-induced cells

SMILES: Cc1ccc(-n2nc(C(C)(C)C)cc2NC(=O)Nc2ccc(OCCN3CCOCC3)c3ccccc23)cc1 [Birb796]
- Viable cells, SSK1 combined with p38 MAPK inhibitor (senescent cells): impaired SSK1's ability to specifically kill senescent cells

SMILES: Oc1ccc(-c2nc(-c3ccncc3)c(-c3ccc(F)cc3)[nH]2)cc1 [SB202190]
- Viable cells, SSK1 combined with p38 MAPK inhibitor (senescent cells): impaired SSK1's ability to specifically kill senescent cells

SMILES: C[S+]([O-])c1ccc(-c2nc(-c3ccncc3)c(-c3ccc(F)cc3)[nH]2)cc1 (stereo not shown) [SB203580]
- Viable cells, SSK1 combined with p38 MAPK inhibitor (senescent cells): impaired SSK1's ability to specifically kill senescent cells

SMILES: O=C(Nc1ccn([C@@H]2O[C@H](CO)C(O)C2(F)F)c(=O)n1)OCc1ccc(O[C@@H]2OC(CO)[C@H](O)C(O)C2O)c([N+](=O)[O-])c1 (stereo partly shown) [SSK2]
- Selective killing of senescent HEFs (viable cells) [2]: efficiently and selectively kill β-galactosidase positive senescent human embryonic fibroblasts (HEFs) in a dose-dependent manner
- Elimination of OA chondrocytes ([3]; FIG. 16: 10 μM, 72 h, FIG. 17: increasing concentrations): efficiently eliminate primary human chondrocytes isolated from Osteoarthritis patient
- Viable human OA chondrocytes with increasing concentrations ([3]; SSK2 treatment for 48 h / 72 h as printed): Dose-dependent elimination of senescent cells

SMILES: Nc1ccn([C@@H]2O[C@H](CO)[C@@H](O)C2(F)F)c(=O)n1 [gemcitabine]
- Selective killing of senescent cells (viable cells) ([4]; increasing doses, senescent vs non-senescent cells): killed both cell types
- Cytotoxicity for senescent cells ([4]; mouse senescent cells, panel of FDA-approved drugs): killed both mouse and human senescent cells effectively and potently
- Cytotoxicity for senescent cells [5]: killed both mouse and human senescent cells effectively and potently
